Measured values as given in article PMC5514153, “Targeting PTPRZ inhibits stem cell-like properties and tumorigenicity in glioblastoma cells” (Scientific Reports, 2017).

Legend:
[1] = target: T1, hPTPRG (Homo sapiens, UniProt P23470); experiment: In vitro PTPase assay (DiFMUP), PTPRG; type: biochemical; details: 60-min preincubation
T1 construct: The ICRs of PTPRG, PTPRS, and PTPRB and the catalytic domains of PTPN1 and PTPN6; GST (N); made in house; host or cells: Escherichia coli BL21
Protocol: (§1) Figure 4 NAZ2329, an allosteric inhibitor of R5 RPTP subfamily members. (A) Structure of NAZ2329. (B) Effect of preincubation of NAZ2329 on its inhibitory activity against PTPRZ. Recombinant human PTPRZ1 enzyme (the whole intracellular region) was premixed with NAZ2329 for the indicated times and followed by addition of a fluorogenic DiFMUP (non-specific PTP substrate, 6,8-difluoro-4-methylumbiliferyl phosphate) to measure PTP inhibitory activity. (C) Time dependence. The PTPRZ1 enzyme was added to the inhibitor–substrate mixture, and the inhibitory activity was determined at each time point relative to the vehicle control. (D) Reversibility of inhibition. […] The mixture was then 20-fold diluted, and recovered PTP activity was expressed as the relative activity compared with the vehicle-treated enzyme. […] PTPRZ1 enzymes were preincubated with NAZ2329 for 60 min, and the PTP activity was measured using DiFMUP. […]
(§2) Recombinant proteins corresponding to the entire intracellular regions (ICRs) of PTPRZ1, PTPRA, and PTPRM were expressed using a baculovirus-silkworm expression system, and purified as described. The ICRs of PTPRG, PTPRS, and PTPRB and the catalytic domains of PTPN1 and PTPN6 were expressed as glutathione-S-transferase (GST) fusion proteins from each pGEX plasmid in Escherichia coli strain BL21 (ref. [6]). […]

[2] = target: T2, mPTPRB (Mus musculus, UniProt B2RU80); experiment: In vitro PTPase assay (DiFMUP), PTPRB; type: biochemical; details: 60-min preincubation
T2 construct: The ICRs of PTPRG, PTPRS, and PTPRB and the catalytic domains of PTPN1 and PTPN6; GST (N); made in house; host or cells: Escherichia coli BL21
Protocol: as §1, §2

[3] = system: C6 cells; experiment: Sphere formation, SOX2 expression and self-renewal, C6 cells; type: cell-based, rat
Protocol: Figure 7 Cellular effects of NAZ2329 on the malignant phenotypes of C6 cells. (A) Phosphorylation of paxillin at Tyr-118. C6 cells were incubated with NAZ2329 for the indicated periods. Immunoprecipitated paxillin was analyzed by Western blotting using anti-pY118-paxillin and anti-paxillin. Blots are representative of five independent cultures. […] (B) Cell proliferation assay. C6 cells were incubated for 48 h with NAZ2329 in normal medium containing 2% FBS. […] (C) Boyden chamber assay. Cells were allowed to migrate for 3 h. DAPI-stained nuclei are shown before (total) and after (migrated) the removal of cells remaining in the top chamber. Scale bars, 100 µm. […] (D,E) Sphere formation (D) and SOX2 expression (E). C6 cells were cultured in CSC medium for 7 days with indicated concentrations of NAZ2329. Images are representative of five independent cultures. Scale bars, 100 µm. […] (F) Self-renewal of C6 spheres. C6 spheres were initially developed in CSC medium for 7 days, followed by an incubation with NAZ2329 in CSC medium for 5 days. Images are representative of five independent cultures. Scale bars, 100 µm. […] Full-length blots and gels are presented in Supplementary Fig. S7.
Cells were inoculated at 5 × 10^3 cells per 96-well uncoated polystyrene plate (# 9018, Corning) or 5 × 10^4 cells per 35-mm plastic petri dish (#351008, Corning), and cultured in a serum-free medium containing DMEM/F12 with 1x B27 supplement (#17504044, Thermo Fisher Scientific), EGF (20 ng/ml), and basic fibroblast growth factor (bFGF, 20 ng/ml, #064-05381, Wako pure chemical). After a 7-day culture, cells were fixed with 10% neutral formalin and pictured under a conventional microscope. The number of spheroids of approximately 70 µm in diameter were counted manually using Adobe Photoshop CS6 (Adobe).

[4] = system: C6 cells; experiment: Cell proliferation assay, C6 cells; type: cell-based, rat; details: 48 h, 2% FBS
Protocol: Figure 7 Cellular effects of NAZ2329 on the malignant phenotypes of C6 cells. (A) Phosphorylation of paxillin at Tyr-118. C6 cells were incubated with NAZ2329 for the indicated periods. Immunoprecipitated paxillin was analyzed by Western blotting using anti-pY118-paxillin and anti-paxillin. Blots are representative of five independent cultures. […] (B) Cell proliferation assay. C6 cells were incubated for 48 h with NAZ2329 in normal medium containing 2% FBS. […] (C) Boyden chamber assay. Cells were allowed to migrate for 3 h. DAPI-stained nuclei are shown before (total) and after (migrated) the removal of cells remaining in the top chamber. Scale bars, 100 µm. […] (D,E) Sphere formation (D) and SOX2 expression (E). C6 cells were cultured in CSC medium for 7 days with indicated concentrations of NAZ2329. Images are representative of five independent cultures. Scale bars, 100 µm. […] (F) Self-renewal of C6 spheres. C6 spheres were initially developed in CSC medium for 7 days, followed by an incubation with NAZ2329 in CSC medium for 5 days. Images are representative of five independent cultures. Scale bars, 100 µm. […]
Cells (3 × 10^4 cells) were inoculated into a 24-well plastic tissue culture plate with 500 µl of DMEM supplemented with 2% FBS and the indicated compounds for 48 h. Cells were harvested by trypsinization and then manually counted with a hemacytometer.

T2 sequence (B2RU80 1644-1997 limits assumed): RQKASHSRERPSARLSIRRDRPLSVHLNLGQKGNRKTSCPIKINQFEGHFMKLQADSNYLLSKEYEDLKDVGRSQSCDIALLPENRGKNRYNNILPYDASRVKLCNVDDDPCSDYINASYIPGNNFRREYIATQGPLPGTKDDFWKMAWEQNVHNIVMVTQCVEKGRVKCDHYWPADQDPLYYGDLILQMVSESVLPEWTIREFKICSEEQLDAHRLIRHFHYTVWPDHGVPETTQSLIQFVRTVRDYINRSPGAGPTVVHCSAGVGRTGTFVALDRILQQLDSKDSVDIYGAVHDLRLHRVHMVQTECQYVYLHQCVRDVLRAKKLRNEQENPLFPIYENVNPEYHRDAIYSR
T1 sequence (P23470 763-1445 limits assumed): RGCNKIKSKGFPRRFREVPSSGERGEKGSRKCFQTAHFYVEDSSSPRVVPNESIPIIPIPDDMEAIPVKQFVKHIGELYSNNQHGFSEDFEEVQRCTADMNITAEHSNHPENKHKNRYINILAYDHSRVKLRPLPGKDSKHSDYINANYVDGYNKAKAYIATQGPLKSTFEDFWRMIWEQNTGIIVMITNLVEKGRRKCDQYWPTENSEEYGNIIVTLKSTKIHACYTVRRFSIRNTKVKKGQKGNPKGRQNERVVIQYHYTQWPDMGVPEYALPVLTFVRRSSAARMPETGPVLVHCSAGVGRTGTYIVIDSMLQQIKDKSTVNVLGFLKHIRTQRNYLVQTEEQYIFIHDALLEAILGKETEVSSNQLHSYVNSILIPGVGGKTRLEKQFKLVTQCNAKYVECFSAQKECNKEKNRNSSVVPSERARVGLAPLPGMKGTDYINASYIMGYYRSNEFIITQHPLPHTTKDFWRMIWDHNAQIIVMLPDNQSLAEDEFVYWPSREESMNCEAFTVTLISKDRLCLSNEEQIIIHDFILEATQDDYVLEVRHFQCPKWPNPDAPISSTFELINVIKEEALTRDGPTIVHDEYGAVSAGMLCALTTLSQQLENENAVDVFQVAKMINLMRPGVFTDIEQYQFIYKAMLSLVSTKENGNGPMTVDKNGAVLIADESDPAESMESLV

IC50 [1]: 4.8 µM
IC50 [2]: 35.4 µM
SMILES: CCOc1ccc(C(F)(F)F)cc1CSc1ccsc1C(=O)NS(=O)(=O)c1ccccc1 [NAZ2329]
SOX2 expression ([3]; C6 cells, CSC medium, 7 days): decrease in SOX2 expression
sphere formation ([3]; C6 cells, CSC medium, 7 days): dose-dependently inhibited sphere formation
self-renewal of sphere-forming cells ([3]; C6 spheres, 5 days with compound): suppressed self-renewal
cell proliferation [4]: inhibited cell proliferation
